Data set [1] concerns the target T1, human AspH (His6-AspH315-758) (Homo sapiens, UniProt Q12797).
T1 construct: N-Terminally His6-tagged human AspH315-758 (His6-AspH315-758) was produced in Escherichia coli BL21 (DE3); made in house; host or cells: Escherichia coli BL21 (DE3), pET-28a(+) vector
T1 sequence (Q12797 315-758): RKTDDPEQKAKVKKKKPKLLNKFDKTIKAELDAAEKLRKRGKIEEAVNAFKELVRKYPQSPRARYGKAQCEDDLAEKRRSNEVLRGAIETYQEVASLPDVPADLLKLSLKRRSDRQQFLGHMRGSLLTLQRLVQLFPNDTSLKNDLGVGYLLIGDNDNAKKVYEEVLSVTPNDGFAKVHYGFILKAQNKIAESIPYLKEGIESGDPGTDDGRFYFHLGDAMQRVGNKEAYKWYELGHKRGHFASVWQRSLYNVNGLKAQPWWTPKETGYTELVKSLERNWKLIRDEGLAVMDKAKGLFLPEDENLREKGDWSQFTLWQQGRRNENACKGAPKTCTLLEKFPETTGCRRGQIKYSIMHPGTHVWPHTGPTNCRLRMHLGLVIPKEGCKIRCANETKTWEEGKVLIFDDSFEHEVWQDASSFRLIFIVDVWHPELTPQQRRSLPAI
As to the kind of experiment: NMR monitoring of AspH-catalyzed oxidative decarboxylation, with final SPE-MS analysis. The format is biochemical. The procedure: 2-methylsuccinate and terephthalate, respectively (continues on the following two pages). The AspH- […]
700 NMR machine equipped with a 5mm 1H(13C/15N) inverse cryoprobe. Assay conditions: 10 μM His6-AspH315- […]
iron(II) sulfate hexahydrate (FAS, (NH4)2Fe(SO4)2·6H2O) in 50 mM aqueous Tris-d11 containing 10 %v/v D2O (pH […]
product of the AspH-catalyzed reaction, was determined using SPE-MS (Supporting Information, Section 9) after […]
of the 1H NMR spectrum of commercial succinate in 50 mM aqueous Tris-d11 containing 10 %v/v D2O (pH 7.5, 25° […]
(1 picture or pasted object on this page, not shown here) […]
using a Bruker AVIII 700 NMR machine equipped with a 5mm 1H(13C/15N) inverse cryoprobe. Assay conditions: […]
ammonium iron(II) sulfate hexahydrate (FAS, (NH 4)2Fe(SO4)2·6H2O) in 50 mM aqueous Tris -d11 containing […]
which is the product of the AspH-catalyzed reaction, was determined using SPE-MS (Supporting Information, Section 9) after completion of the NMR experiments. […]
spectrum of synthetic 34 in 50 mM aqueous Tris-d11 containing 10 %v/v D2O (pH 7.5, 25° C); (b) Close-up (3.0-0.9 ppm) of the 1H NMR spectrum of commercial 2,2-dimethylsuccinate (52) in 50 mM aqueous Tris-d11

The target in data set [2] is T1, human AspH (His6-AspH315-758). Description: SPE-MS AspH inhibition assay. The format is biochemical. The following applies: mean ± SD, n = 3. On the procedure:
6. Recombinant AspH production and purification
N-Terminally His6-tagged human AspH315-758 (His6-AspH315-758) was produced in Escherichia coli BL21 (DE3) cells using a pET-28a(+) vector and purified by Ni(II)-affinity chromatography (HisTrap HP column, GE Healthcare; 1 mL/min flow rate) and size-exclusion chromatography (HiLoad 26/60 Superdex 75 pg 300 mL column; 1 mL/min) using an ÄKTA pure machine (GE Healthcare) as previously reported.1,4 AspH was >95% pure by SDS-PAGE and MS analysis and had the anticipated mass (calculated for His6-AspH315-758: 54519 Da, found: 54519 Da).1 Purified AspH was stored in 50 mM HEPES buffer (pH 7.5, 150 mM NaCl) at a concentration of 125 μM at -78 °C; fresh aliquots were used for all AspH assays.
7. AspH substrate synthesis
AspH substrates were designed based on the sequence of EGFD1 of human coagulation factor X (hFX amino acids 86-124), which is a reported cellular AspH substrate.2 All substrates were prepared with a C-terminal amide.
The hFX-EGFD186-124-4Ser peptide (hFX amino acids 86-124; Supporting Figure S1c),1 used for crystallography experiments, was synthesized by solid phase peptide synthesis (SPPS) and purified by GL Biochem (Shanghai) Ltd (Shanghai, China). The thioether linked cyclic peptide hFX-CP101-119 (hFX amino acids 101-119; Supporting
Figure S1d), which was used as substrate in AspH SPE-MS assays,4 was synthesized by an intramolecular thioetherification cyclization reaction from the corresponding linear peptide (D-Ala replacing Cys101hFX and Ser replacing Cys112hFX) which was obtained by microwave-assisted solid phase peptide synthesis using the Fmoc-protection strategy as described.4
8. AspH inhibition assays […]
water; ammonium iron(II) sulfate hexahydrate, FAS, (NH 4)2Fe(SO4)2·6H2O: 400 mM in 20 mM HCl diluted to 1 mM in Milli-Q® Ultrapure water) were freshly prepared each day from commercially sourced solids (Sigma […]
(Greiner) in an approximately three-fold and 11-point dilution series (100 μM top concentration) using an ECHO 550 acoustic dispenser (Labcyte). DMSO and 2,4 -PDCA were used as negative and positive controls , respectively .
The final DMSO concentration was kept constant at 0.5%v/v throughout all experiments (using the DMSO backfill option of the acoustic dispenser). Each reaction was performed in technical duplicates in adjacent wells of the assay plates; additionally, assays were performed in three independent technical duplicates on different days using different DMSO inhibitor solutions. […]
dispensed across the inhibitor-containing 384-well assay plates with a multidrop dispenser (ThermoFischer Scientific) at 20°C under an ambient atmosphere. The plates were subsequently centrifuged (1000 rpm, 30 s) and incubated for 15 minutes at 20°C. The Substrate Mixture (25 μL/well), containing 2.0 μM hFX-CP101-119, 200 μM […]
Note: The multidrop dispenser ensured proper mixing of the Enzyme and the Substrate Mixtures which was essential for assay reproducibility. The plates were centrifuged (1000 rpm, 30 s) and af ter incubating for 7 minutes, […]
centrifuged (1000 rpm, 60 s) and analysed by MS.
(§1) The mass spectrometer parameters were:
(§2) Data were exported into Microsoft
(§3) The standard deviation (SD) of three
(§4) Z’-factors were calculated
9. Determination of kinetic parameters […]
(§5) in 50 mM HEPES buffer (pH 7.5).

A further data set addresses T2, human AspH (Homo sapiens, UniProt Q12797).
T2 sequence (Q12797 315-758): T1 sequence (Q12797 315-758)
As to the kind of experiment: SPE-MS AspH turnover assay in the absence of 2OG (2OG derivative as cosubstrate).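 Note: percent conversion = hydroxylated cyclic peptide peak area relative to summed substrate plus product areas, taken from +2 charge state ion chromatograms by solid phase extraction MS.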 As to conditions: 330 μM 2OG or 2OG derivative, 0.1 μM AspH, 2 μM hFX-CP101-119, 50 μM FAS, t = 15 min.

The target in data set [3] is T1, human AspH (His6-AspH315-758). As to the kind of experiment: AspH steady-state kinetics by SPE-MS turnover assays. The format is biochemical. As to conditions: for K app m / v app max: 0.1 μM His6-AspH315–758, 2.0 μM hFX-CP101–119, in the presence of LAA, mean ± SD, n = 3. The procedure: Supporting Figure S6. Initial hydroxylation rates of AspH-catalyzed peptide hydroxylations used to
Measurement times were normalized to the first sample injection analyzed after the addition of the Enzyme
as §1, §2, §3, §4
9. Determination of kinetic parameters
as §5

The target is the same in data set [4]. Details: method as in PMID 32107312. As to conditions: cited from earlier work.
For data set [5] the target is unchanged. The arrangement: method as in PMID 33069066. The following applies: ref 41a; read-out: IC50 (inhibition of AspH, literature); cited from earlier work.
The mark [6] stands for this setting: 50 nM His6-AspH315–758, 1.0 μM hFX-CP101–119, 3 μM 2OG, read-out: IC50 (inhibition of AspH).
Setting [7] is: 50 nM His6-AspH315–758, 1.0 μM hFX-CP101–119, 3 μM 2OG.

Several values for one entry are separate records, joined by “and”; a condition that tells them apart may be missing. Identical values can stand only once. Like-named read-outs stand apart in the source and are kept apart here.

Consider `O=C(O)C(=O)CC(Cc1ccccc1)C(=O)O` (stereo not drawn) [compound 32, 4-benzyl-2OG], for which the melting point was > 240 °C (dec.). Also, in data set [1] (10 μM His6-AspH315-758, 150 μM hFX-CP101-119, 150 μM 2OG derivative, 50 μM FAS, pH 7.5, 25 °C), the “AspH-catalyzed oxidative decarboxylation of the 2OG derivative (NMR)” value is recorded as “apparently not turned over”. In addition, the half-inhibitory concentration (IC50) in data set [2] (setting [6]) worked out at 0.43 ± 0.05 µM. Moreover, the “AspH-catalyzed substrate conversion (hydroxylation of hFX-CP101-119)” value (from here on “AspH-catalyzed substrate conversion”) on human AspH is reported as under 1%.

Turning to `O=C(O)C(=O)c1ccc(C(=O)O)cc1` [compound 41, 4-carboxyphenylglyoxylic acid], the melting point is > 350 °C (dec.). The “time to complete AspH-catalyzed oxidative decarboxylation (NMR)” value (from here on “time … (NMR)”) in data set [1] (10 μM AspH, 150 μM cosubstrate) was at most 5 min. In data set [3], the K app m worked out at 61.9 ± 11.0 µM and the v app max amounted to 0.004 ± 0.0003 µM/s. Moreover, the “K app m relative to that for 2OG (times higher)” value in data set [3] (ratio to K app m of 2OG) is given as about 47. Moreover, in data set [2] (setting [7]), the “IC50 (inhibition of AspH)” value is reported as “did not inhibit”. In addition, the “IC50 (inhibition of AspH)” value in data set [2] (50 nM His6-AspH315–758, 1.0 μM hFX-CP101–119, 3 μM 2OG, listed as C00012) is on record as “Inactive”. Further, the “AspH-catalyzed substrate conversion” value on human AspH is on record as about 80%.

Take `CC(CC(=O)O)C(=O)C(=O)O` (stereo not drawn) [compound 16, 3-methyl-2OG]: the “time … (NMR)” value in data set [1] (10 μM AspH, 150 μM cosubstrate) is recorded as at most 5 min. Further, in data set [3], the K app m stood at 0.27 ± 0.04 µM and the v app max is 0.0069 ± 0.0002 µM/s. Further, in data set [2] (setting [7]), the “IC50 (inhibition of AspH)” value was “Inactive”. For the same molecule, the IC50 in data set [2] (setting [6]) was over 50 µM. Also, the “AspH-catalyzed substrate conversion” value at human AspH is listed as over 95%.

As to `O=C(O)CCC(=O)C(=O)O` [2OG, 2-Oxoglutarate, reference compound], in data set [4], the “K app m (2OG) in the absence of LAA” value was about 0.6 µM and the “v app max (2OG) in the absence of LAA” value is about 0.0168 µM/s. Moreover, in data set [1] (10 μM AspH, 150 μM cosubstrate), the “time … (NMR)” value is reported as at most 5 min. The “hydroxylation (conversion) of hFX-CP101-119 in the final reaction mixture by SPE-MS” value in data set [1] (t = 5 min, 10 μM AspH, 150 μM cosubstrate) was over 95%. In data set [3], the k cat turned out to be 0.17 ± 0.03 s⁻¹, the K app m was 1.3 ± 0.3 µM and the v app max is 0.015 ± 0.0009 µM/s.

For `O=C(O)C(=O)c1ccc(C(=O)O)c(F)c1` [compound 43], the melting point was > 260 °C (dec.). In addition, the “IC50 (inhibition of AspH)” value in data set [2] (setting [7]) is on record as “Inactive”. Moreover, the “AspH-catalyzed substrate conversion” value on human AspH is reported as about 8%.

For `O=C(O)C(=O)N[C@H](Cc1ccccc1)C(=O)O` [NOFD, N-oxalyl-D-phenylalanine], the half-inhibitory concentration (IC50) in data set [5] was about 15.5 µM.

As to `COc1ccc(CC(CC(=O)O)C(=O)C(=O)O)cc1` (stereo not drawn) [compound 24], the melting point was > 260 °C (dec.). The IC50 in data set [2] (setting [6]) is 3.6 ± 1.4 µM. For the same molecule, the “AspH-catalyzed substrate conversion” value on human AspH was under 1%.

In the case of `O=C(O)C(=O)c1ccc(C(=O)O)s1` [compound 38], the melting point is > 285 °C (dec.). In addition, the IC50 in data set [2] (setting [6]) was ~12.9 µM and 12.9 µM. Also, at human AspH, the “AspH-catalyzed substrate conversion” value is about 15%.

For `O=C(O)C(=O)CC(Cc1ccc2ccccc2c1)C(=O)O` (stereo not drawn) [compound 33], the melting point was > 220 °C (dec.). Moreover, in data set [2] (setting [6]), the IC50 came to 0.17 ± 0.03 µM. This molecule registered an IC50 in data set [2] (IC50 at 200 μM 2OG (ESI Table S1), assay concentration of 200 μM 2OG) of 2.5 ± 0.4 µM. In data set [2] (IC50 at 400 μM 2OG (ESI Table S1), assay concentration of 400 μM 2OG), the half-inhibitory concentration (IC50) is 3.1 ± 0.3 µM. Also, the IC50 in data set [2] (IC50 at 600 μM 2OG (ESI Table S1), assay concentration of 600 μM (0.6 mM) 2OG) was 5.6 µM and ~5.6 µM. At human AspH, the “AspH-catalyzed substrate conversion” value is listed as under 1%.

With `O=C(O)C(=O)c1ccc(C(=O)O)cc1Br` [compound 44], the melting point was > 300 °C (dec.). In data set [2] (setting [7]), the “IC50 (inhibition of AspH)” value was “Inactive”. For the same molecule, at human AspH, the “AspH-catalyzed substrate conversion” value is about 20%.

In the case of `O=C(O)c1ccnc(C(=O)O)c1` [2,4-PDCA, pyridine-2,4-dicarboxylate], the concentration for half-maximal inhibition (IC50) in data set [5] was about 0.03 µM.

For the molecule `O=C(O)CC(Cc1ccccc1)C(=O)C(=O)O` (stereo not drawn) [compound 21], the melting point is > 250 °C (dec.). For the same molecule, the half-maximal inhibitory concentration (IC50) in data set [2] (setting [6]) was ~1.6 µM and 1.6 µM. The “AspH-catalyzed substrate conversion” value on human AspH was under 1%.

The values are drawn from article PMC8179049 (Chemical Science, 2020).
